Reference: patent EP2958945B1, “COMBINATION THERAPY INVOLVING ANTIBODIES AGAINST CLAUDIN 18.2 FOR TREATMENT OF CANCER” (Astellas Pharma Inc., priority 2013, dated 2014)

What was measured:
Kato III cells [1] = test: Viable cells after 3 days pretreatment, Kato III; format: cell-based, human; details: Kato III pretreated 3 days; Irinotecan 1000 ng/ml, Docetaxel 5 ng/ml, Cisplatin 2000 ng/ml; vs medium cultivated cells
Procedure: (§1) Peripheral blood mononuclear cells (PBMCs) including NK cells, monocytes, […] or other effector cells from healthy human donors were purified by Ficoll Hypaque density centrifugation. Washed effector cells were seeded in X-Vivo medium. Kato III cells which express CLDN18.2 endogenously and are of gastric origin were used as target cells in this setting. Target cells stably expressed luciferase, lucifer yellow, which is oxidized by viable cells only.

Kato III cells [2] = test: Cell cycle analysis and cell growth, Kato III; format: cell-based, human; details: for cell cycle arrest: Kato III pretreated for 4 days
Procedure: Kato III cells, a human gastric tumor cell line, was cultivated in RPMI 1640 medium (Invitrogen) containing 20% FCS (Perbio) and 2 mM Glutamax (Invitrogen) at 37°C and 5% CO2, with or without cytostatic compounds. 5-FU (Neofluor from NeoCorp AG) was tested at a concentration of 10 or 100 ng/ml, and oxaliplatin (Hospira) was tested at a concentration of 50 or 500 ng/ml. […] Cells were harvested with EDTA/trypsin, washed and analysed.
Cell cycle stages were determined based on measurement of cellular DNA content. This allows one to discriminate between cells in the G1-, S- or G2-phase of the cell cycle. In the S-phase DNA duplication occurs whereas in the G2-phase cells grow and prepare for mitosis. Cell cycle analysis was done using the CycleTEST PLUS DNA Reagent Kit from BD Biosciences following the manufacturer's protocol. Flow cytometry acquisition and analysis were performed by using BD FACS CantoII (BD Biosciences) and FlowJo (Tree Star) software.
Kato III cells were pretreated for 4 days with Irinotecan or Docetaxel and analysed for CLDN18.2 expression and cell cycle arrest.

Kato III cells [3] = test: IMAB362 induced ADCC on chemotherapy pretreated Kato III; format: cell-based, human; details: Kato III pretreated 3 days; Irinotecan 1000 ng/ml, Docetaxel 5 ng/ml, Cisplatin 2000 ng/ml
Procedure: as §1

[4] = tested on: established MiaPaCa-2-LVT xenograft tumors; test: Established MiaPaCa-2-LVT xenograft tumors; format: in vivo, Hsd:Athymic Nude-Foxn1^nu mice; details: gemcitabine 2x 150 mg/kg per week, independent from IMAB362 treatment
MiaPaCa-2-LVT xenografts = test: Subcutaneous MiaPaCa-2-LVT xenograft model; format: in vivo, Hsd:Athymic Nude-Foxn1^nu mice; details: up to 100 mg/kg gemcitabine without additional IMAB362 treatment
DANG [5] = test: Cell cycle analysis, DANG; format: cell-based, human; details: Gem 2 ng/ml, two days
Procedure: Cells were plated in six-well plates, and 5-6 hours later chemotherapeutic agents were added for either 24 h 48 h or 3 days. Cells floating in the medium were combined with the adherent cell layer, which was trypsinized. Cells were washed. Either cell cycle analysis was started directly or cell surface staining was done before as described above. Cells are resuspended in 1 ml PBS and added to 3 ml 4% PFA. After 15 min fixation of cells at room temperature cells are pelleted and washed. For RNAse treatment cells were resuspended in 200 µl RNAse (10000 U/ml) plus 0.05% Triton X-100 and incubated for 30 min at 37°C. 1 ml PBS was added and samples were centrifuged and resuspended in 200 µl PBS/PJ 50 µg/ml. At least 30 min later samples were ready to be analyzed by flow cytometry. Cell cycle phase distribution was determined using FlowJo software to analyze DNA content histograms.

BxPC3-LVT xenografts = test: Subcutaneous BxPC3-LVT xenograft model; format: in vivo, Hsd:Athymic Nude-Foxn1^nu mice; details: up to 100 mg/kg gemcitabine without additional IMAB362 treatment
CLDN18.2 [6] = test: CLDN18.2 expression after chemotherapeutic pretreatment (RT-PCR, western blot), DANG; format: cell-based, human; details: Gem 1 ng/ml or Gem 1 ng/ml + Ox 10 ng/ml, 2 days, vs untreated
Procedure: For RNA isolation from pancreatic cancer cell lines, cells were seeded in 10 cm dishes and grown for 2-3 days until 80% confluent. RNA was isolated according to instructions supplied with the RNeasy® Mini Kit (Qiagen). cDNA preparation was performed following manufacturers instructions provided with the SuperScript® III First Strand kit (Invitrogen). RNA and cDNA samples were stored at -80°C.
Quantitative analysis of CLDN18.2 transcripts was performed by amplifying oligo(dT)-primed cDNAs in a 40 cycle PCR reaction using PCR primers #5054s (5'-[…]-3') and #5060as (5'-[…]-3') differentiating between CLDN18.1 and CLDN18.2 isoforms. The reaction was prepared with SYBR Green (QuantiTect SYBR Green PCR Kit, Qiagen), which intercalates in double stranded DNA. The reactions and measurements were performed using the ABI-PRISM7900 Sequence Detection System instrument and software (Applied Biosystems).
The relative expression levels of CLDN18 transcripts was computed using ΔΔCT calculation with respect to the house keeping gene HPRT.
For isolation of proteins of pancreatic cancer cell lines, cells were seeded in 10 cm dishes and grown for 2-3 days until 80% confluent. […] Protein concentration was measured in a spectrophotometer (Absorption at 280nm) and samples were stored at -80°C until use. […]

DANG [7] = test: IMAB362-mediated ADCC on chemotherapy pretreated DANG; format: cell-based, human; details: DANG pretreated 2 days, Gem 1 ng/ml or Gem 1 ng/ml + Ox 10 ng/ml; vs untreated
Procedure: Pancreatic cancer target cells were seeded two days in advance in flasks to obtain 80-90% confluent cultures on the day ADCC started. […] NUGC-4 sub 10cH11 subE10 Luci#2 cells (8000 cells/well) were seeded in addition as positive controls in all assays. Cells were cultivated for 4-6 h before addition of antibody and purified PBMCs.
PBMCs were prepared from fresh human buffy coat obtained from healthy donors. About 3x 20-25 ml blood was diluted (1:2) with PBS and carefully layered on 4x 15 ml Ficol-Paque Plus (GE Healthcare) in 50 ml Falcon tubes. Gradients were centrifuged (25 min, 700 g). […] The pellets were resuspended in 50 ml PBS/2 mM EDTA and cells were counted. […]
The next day, 10 µl 8% Triton X100/PBS solution was added to the lysis control wells and 10 µl PBS in all other wells. […] Luminescence resulting from the oxidation of […] by the luciferase of viable cells was measured using a microplate-reader (Infinite200, Tecan, Switzerland). Percentage of cellular cytotoxicity was calculated using the following formula: Specific killing (%) = 100−[(RLUsample−RLUtriton)/(RLUmedium ctrl−RLUtriton)×100] […]
On the day ADCC started, the protocol described above was followed and cell surface expression of CLDN18 was determined in FACS analysis as described above.

CLDN18.2 [8] = test: CLDN18.2 expression after 3 days pretreatment, Kato III; format: cell-based, human; details: Kato III pretreated 3 days; Irinotecan 1000 ng/ml, Docetaxel 5 ng/ml, Cisplatin 2000 ng/ml; vs medium cultivated cells

Row | Compound | level of viable cells (Kato III cells [1]) | cell cycle arrest (Kato III cells [2]) | potency of IMAB362 to induce ADCC (Kato III cells [3]) | claudin18.2 expression (CLDN18.2 [8]) | further results
1 | CCc1c2c(nc3ccc(OC(=O)N4CCC(N5CCCCC5)CC4)cc13)-c1cc3c(c(=O)n1C2)COC(=O)[C@]3(O)CC [Irinotecan, (S)-4,11-diethyl-3,4,12,14-tetrahydro-4-hydroxy-3,14-dioxo1H-pyrano[3',4':6,7]-indolizino[1,2-b]quinolin-9-yl-[1,4'-bipiperidine]-1'-carboxylate] | lower level of viable cells | cell cycle arrest in the S/G2-phase | augmented |  | 
2 | Nc1ccn([C@@H]2O[C@H](CO)[C@@H](O)C2(F)F)c(=O)n1 [gemcitabine, 4-amino-1-(2-deoxy-2,2-difluoro-β-D-erythro-pentofuranosyl)pyrimidin-2(1H)-one] |  |  |  |  | tumor growth [4]: strongly inhibited in tumor growth; therapeutic effect on xenograft (MiaPaCa-2-LVT xenografts): no significant therapeutic effect; cell cycle arrest (DANG [5]): cell cycle arrest in S-Phase; therapeutic effect on xenograft (BxPC3-LVT xenografts): no significant therapeutic effect; mRNA and protein levels of CLDN18.2 (CLDN18.2 [6]): increased mRNA and protein levels; susceptibility for IMAB362 mediated ADCC (DANG [7]): higher susceptibility
3 | O=c1[nH]cc(F)c(=O)[nH]1 [5-FU, 5-fluoro-1H-pyrimidine-2,4-dione] |  |  |  |  | cell cycle phase distribution (Kato III cells [2]; Kato III, 5-FU 10 or 100 ng/ml, oxaliplatin 50 or 500 ng/ml, 96 hours): blocked predominantly in the S-phase
4 | N.N.[Cl][Pt][Cl] [Cisplatin, cis-diamminedichloroplatinum(II)] | lower level of viable cells |  | augmented | increased | 
5 | CC(=O)O[C@@]12CO[C@@H]1C[C@H](O)[C@@]1(C)C(=O)[C@H](O)C3=C(C)[C@@H](OC(=O)[C@H](O)[C@@H](NC(=O)OC(C)(C)C)c4ccccc4)C[C@@](O)([C@@H](OC(=O)c4ccccc4)[C@H]21)C3(C)C [Docetaxel, 1,7β,10β-trihydroxy-9-oxo-5β,20-epoxytax-11-ene-2α,4,13α-triyl 4-acetate 2-benzoate 13-{(2R,3S)-3-[(tert-butoxycarbonyl)-amino]-2-hydroxy-3-phenylpropanoate}] | lower level of viable cells | cell cycle arrest in the G2-phase | augmented | increased | 
